In general, IC50 refers to the point on the concentration scale where inhibition reaches its midpoint. A lower IC50 goes with greater potency in that assay.

For the test, the system named is UCSD-AML1 cells. The test can be described thus: CTG viability, UCSD-AML1. Type of test: cell-based, human. Particulars: for IC50: UCSD-AML cells, replicate values. As for the experimental part:
After establishing the potency and selectivity of our lead CK1α degraders, we investigated their effect on a panel of AML and ALL cell lines (Fig. 3a).
The primary screen was performed in 384-well format using the CellTiter Glo (CTG) luminescent cell viability assay (Promega) as previously described. 3630 compounds from the St. Jude proprietary molecular glue library were screened against 9 human cancer cell lines (HD-MB03, MB004, MB002, MHH-CALL4, MOLM-13, TF-1, HEL, OCI-AML3, AML193). Each cell line was cultured in the complete medium recommended by the vendor and seeded in Corning 8804 BC white 384-well assay plates at densities of 1000, 1000, 1500, 7500, 1250, 156, 625, 1250, 1250 cells per well for HD-MB03, MB004, MB002, MHH-CALL4, MOLM-13, TF-1, HEL, OCI-AML, AML193, respectively. After overnight incubation at 37 °C in a humidified 5% CO2 incubator, cells were treated with compounds in dose–response format using a Pintool on a Biomek FX^P Laboratory Automation Workstation (Beckman Coulter). After 72 h of incubation, cell proliferation was assessed using a CellTiter-Glo (CTG) luminescent cell viability assay (Promega) according to the manufacturer’s instructions. Luminescence signal was measured using an EnVision plate reader (PerkinElmer).
HD-MB03 cell line was obtained from Drs. Milde, Witt and Deubzer[52]. HD-MB03 and MB004 cells were grown in a neurobasal medium supplemented with glutamine, streptomycin, penicillin, B27, EGF, bFGF, and heparin as previously described. MB002 and MB004 cells were obtained from Dr Yoon-Jae Cho[54]. MB002 cells were cultured in 80% neurobasal medium supplemented with glutamine, streptomycin, penicillin, B27, and 20% conditioned media from previous passages; EGF, bFGF, and heparin were also added to the medium. MHH-CALL4, NALM-16, MHH-CALL-2 cells were obtained from the German Collection of Microorganisms and Cell Cultures GmbH (DSMZ, Germany). PER-117 cells were obtained from Telethon Kids Institute (Perth, Australia). The cells were cultured in RPMI1640 medium supplemented with 10% FBS (Hyclone), Penicillin/Streptomycin (100 units/mL), and Glutamine (100 µM) except for MHH-CALL-2 cells where 20% FBS were used. MOLM-13 cells were obtained from DSMZ (ACC 554) and cultured in RPMI-1640 media (Gibco) supplemented with 20% FBS (R&D Systems) and 100 U/ml penicillin-streptomycin (Gibco). HNT-34 cells were purchased from DSMZ (ACC 600) and cultured in RPMI-1640 media supplemented with 20% FBS and 100 U/ml penicillin-streptomycin. Kasumi-3 cells were purchased from ATCC (CRL-2725) and cultured in RPMI-1640 media supplemented with 20% FBS and 100 U/ml penicillin-streptomycin. […]

Several values for one entry are separate records, joined by “and”; a condition that tells them apart may be missing. Equal values may be shown once.

Turning to `O=C1CCC(N2Cc3cc(Nc4noc5ccccc45)ccc3C2=O)C(=O)N1` (stereo not shown) [SJ3149], the IC50 is 1 nM and 0.4 nM and 1.1 nM. The “Activity against UCSD-AML1 cells” value (CTG) is on record as “sub-nanomolar activity”.
As for `Cc1cccc(C(=O)Nc2ccc3c(c2)CN(C2CCC(=O)NC2=O)C3=O)c1` (stereo not shown) [SJ0040], the IC50 was 2.1 nM. For the same compound, under “Homo sapiens”, 3 nM corresponded to half-maximal inhibition (IC50).

(Values after publication PMC10791743, “Selective CK1α degraders exert antiproliferative activity against a broad range of human cancer cell lines” (Nature Communications, 2024).)
